{
  "source": "patent US20110165150A1",
  "about": "“Isolated organ perfusion combination therapy of cancer” (Merck Patent GmbH, priority 2006, published 2011)",
  "origin": "cited, not measured here",
  "tested_on": "integrin receptors αvβ3, αvβ1, αvβ6, αvβ8, αIIbβ3",
  "conditions": "especially αvβ3 and/or αvβ5",
  "data": [
    {"smiles": "CC(C)[C@H]1C(=O)N[C@@H](CCCN=C(N)N)C(=O)NCC(=O)N[C@@H](CC(=O)O)C(=O)N[C@H](Cc2ccccc2)C(=O)N1C", "note": "[Cilengitide, cyclo-(Arg-Gly-Asp-DPhe-NMeVal)]", "values": [
      {"measurement": "blocking the integrin receptors", "value": "efficacious in blocking"}
    ]}
  ]
}
